Source: article PMC3265452 (PLoS Neglected Tropical Diseases, 2012)
Where a name gives a salt, the structure may show the parent alone.

The compounds below were run against AaDOP2 (Aedes aegypti, UniProt H6D5H2) (assay: AaDOP2 antagonist screen of the LOPAC1280 library (HEK-CRELuc-Aadop2 cells, luminescence)). Conditions: not given.
Format: cell-based

Chain of AaDOP2 (H6D5H2 1-476): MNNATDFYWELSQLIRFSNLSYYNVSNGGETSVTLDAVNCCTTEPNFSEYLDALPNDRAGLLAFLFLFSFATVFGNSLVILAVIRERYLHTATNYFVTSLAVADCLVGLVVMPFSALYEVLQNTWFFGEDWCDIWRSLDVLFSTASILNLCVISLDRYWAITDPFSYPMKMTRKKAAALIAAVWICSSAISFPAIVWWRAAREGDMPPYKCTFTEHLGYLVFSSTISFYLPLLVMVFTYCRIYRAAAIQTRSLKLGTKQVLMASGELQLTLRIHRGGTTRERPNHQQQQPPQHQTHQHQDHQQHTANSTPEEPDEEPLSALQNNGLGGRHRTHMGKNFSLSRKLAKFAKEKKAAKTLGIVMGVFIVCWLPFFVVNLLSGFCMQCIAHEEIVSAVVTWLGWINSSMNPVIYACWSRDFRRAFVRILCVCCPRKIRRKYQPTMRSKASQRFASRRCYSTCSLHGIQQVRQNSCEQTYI

SMILES	Compound effect (percent receptor signaling in presence of test compound, relative lux units relative to the SCH23390 control)
NC(=NCc1ccccc1)NC(=O)c1nc(Cl)c(N)nc1N [Compound 166, Benzamil hydrochloride]	60
CCCCS(=N)(=O)CC[C@H](N)C(=O)O (stereo partly drawn) [Compound 167, L-Buthionine-sulfoximine]	81
C[N+](C)(C)CC(=O)O [Compound 170, Betaine hydrochloride]	86
C[N+](C)(C)CC=O [Compound 171, Betaine aldehyde chloride]	99
CC(/C=C/c1cccc(Oc2ccc(F)cc2)c1)N(O)C(N)=O (stereo not drawn) [Compound 173, BWB70C]	118
O=c1[nH]c(=O)n([C@H]2C[C@H](O)[C@@H](CO)O2)cc1Br [Compound 174, 5-Bromo-2'-deoxyuridine]	84
CC(C)COCC(CN(Cc1ccccc1)c1ccccc1)N1CCCC1 (stereo not drawn) [Compound 175, Bepridil hydrochloride]	78
CN(C)CC[C@@H](c1ccc(Br)cc1)c1ccccn1 [Compound 176, (+)-Brompheniramine maleate]	97
Oc1ccc(-c2nc(-c3ccncc3)c(-c3ccc(F)cc3)[nH]2)cc1 [Compound 178, SB 202190]	65
CC(C)(C)c1ccc(S(=O)(=O)/C=C/C#N)cc1 [Compound 179, Bay 11-7085]	76
CC(C)NCC(O)COc1ccc(CCOCC2CC2)cc1 (stereo not drawn) [Compound 180, Betaxolol hydrochloride]	95
N=C(N)c1ccccc1 [Compound 181, Benzamidine hydrochloride]	87
C[C@H]1C[C@H]2[C@@H]3CCC4=CC(=O)C=C[C@]4(C)[C@@]3(F)[C@@H](O)C[C@]2(C)[C@@]1(O)C(=O)CO [Compound 182, Betamethasone]	89
O=C1CC2(CCCC2)CC(=O)N1CCCCN1CCN(c2ncccn2)CC1 [Compound 183, Buspirone hydrochloride]	83
NC(CO)C(=O)NNCc1ccc(O)c(O)c1O (stereo not drawn) [Compound 184, Benserazide hydrochloride]	94
C[C@H]1CCC/C=C/[C@@H]2C[C@H](O)C[C@H]2[C@H](O)/C=C/C(=O)O1 [Compound 185, Brefeldin A from Penicillium brefeldianum]	124
CCCC1O[C@@H]2C[C@H]3[C@@H]4CCC5=CC(=O)C=C[C@]5(C)[C@H]4[C@@H](O)C[C@]3(C)[C@]2(C(=O)CO)O1 (stereo partly drawn) [Compound 186, Budesonide]	128
CCCCOc1cc(CC2CNC(=O)N2)ccc1OC (stereo not drawn) [Compound 189, Ro 20-1724]	122
CC(C)C[C@H](NC(=O)[C@@H](O)[C@H](N)Cc1ccccc1)C(=O)O [Compound 190, Bestatin hydrochloride]	145
CC[N+](C)(C)Cc1ccccc1Br [Compound 191, Bretylium tosylate]	97
CN1CCc2cc3c(cc2[C@H]1[C@@H]1OC(=O)c2c1ccc1c2OCO1)OCO3 [Compound 192, (+)-Bicuculline]	94
COc1ccccc1N1CCN(CCCCNC(=O)c2ccc3ccccc3c2)CC1 [Compound 193, BP 897]	54
O=c1[nH]c(=O)n([C@H]2C[C@H](O)[C@@H](CO)O2)cc1/C=C/Br [Compound 194, (E)-5-(2-Bromovinyl)-2'-deoxyuridine]	121

SMILES	Compound effect (percent receptor signaling in presence of test compound, relative lux units relative to the SCH23390 control)
OC(CN1CCN(c2cccc(Cl)c2)CC1)C(c1ccccc1)c1ccccc1 (stereo not drawn) [Compound 195, BRL 15572]	84
C=CCc1ccccc1OCC(O)CNC1(C)CCC(C(C)(C)NC(=O)CBr)CC1 (stereo not drawn) [Compound 198, Bromoacetyl alprenolol menthane]	87
COc1cccc(OC)c1OCCNCC1CSc2ccccc2O1 (stereo not drawn) [Compound 199, Benoxathian hydrochloride]	68
CC(COc1ccccc1)N(CCCl)Cc1ccccc1 (stereo not drawn) [Compound 200, Phenoxybenzamine hydrochloride]	86
CC(NC(C)(C)C)C(=O)c1cccc(Cl)c1 (stereo not drawn) [Compound 201, Bupropion hydrochloride]	77
C[N+](C)(C)CCOC(=O)CBr.[Br-] [Compound 204, Bromoacetylcholine bromide]	91
Cl.c1ccc2sc(C3(N4CCCCC4)CCCCC3)cc2c1 [Compound 207, BTCP hydrochloride]	100
CN1CCC(c2c[nH]c3ccc(O)cc23)CC1.O=C(O)/C=C\C(=O)O [Compound 213, BRL 54443 maleate]	80
CC(N)Cc1c[nH]c2ccc(OCc3cccs3)cc12 (stereo not drawn) [Compound 214, BW 723C86]	92
O=C(O)CCCc1ccc(N(CCCl)CCCl)cc1 [Compound 215, Chlorambucil]	106
C[N+](C)(C)CCOP(=O)([O-])OP(=O)([O-])OC[C@H]1O[C@@H](n2ccc(N)nc2=O)[C@H](O)[C@@H]1O.[Na+] [Compound 216, Citicoline sodium]	91
CC(C)(Oc1ccc(C2CC2(Cl)Cl)cc1)C(=O)O (stereo not drawn) [Compound 217, Ciprofibrate]	97
O=NN(CCCl)C(=O)NCCCl [Compound 219, Carmustine]	82
CCC(C)N(C)C(=O)c1cc2ccccc2c(-c2ccccc2Cl)n1 (stereo not drawn) [Compound 220, PK 11195]	84
O=C(O)/C=C/c1ccc(O)c(O)c1 [Compound 221, Caffeic Acid]	114
O=C1CCc2cc(OCCCCc3nnnn3C3CCCCC3)ccc2N1 [Compound 222, Cilostazol]	108
O=P1(N(CCCl)CCCl)NCCCO1 (stereo not drawn) [Compound 224, Cyclophosphamide monohydrate]	83
CC(C)(CO)Cc1cc(C(C)(C)C)c(O)c(C(C)(C)C)c1 [Compound 225, CGP-7930]	89
CC(C)(C=O)Cc1cc(C(C)(C)C)c(O)c(C(C)(C)C)c1 [Compound 226, CGP-13501]	98
CCCCCCC(C)(C)c1ccc([C@@H]2C[C@H](O)CC[C@H]2CCCO)c(O)c1 [Compound 227, CP55940]	85
N[C@H]1CON=C1O [Compound 228, L-Cycloserine]	88
O=S(=O)(c1cccc2c(Cl)cccc12)N1CCCNCC1 [Compound 229, ML-9]	102
CCCNC(=O)NS(=O)(=O)c1ccc(Cl)cc1 [Compound 231, Chlorpropamide]	98

Same assay, conditions: 10 µM compound, 300 nM dopamine, 2 hr; hit = compound effect <20

SMILES	Compound effect (percent receptor signaling in presence of test compound, relative lux units relative to the SCH23390 control) [%]
Cl.NCC(O)c1cc(O)c(O)cc1F (stereo not drawn) [Compound 197, 6-Fluoronorepinephrine hydrochloride]	90
COc1ccccc1N1CCN(CCN2C(=O)CC3(CCCC3)CC2=O)CC1.Cl.Cl [Compound 205, BMY 7378 dihydrochloride]	102
Br.C=CCN1CCc2c(cc(O)c(O)c2Br)[C@@H](c2ccccc2)C1 [Compound 206, R(+)-6-Bromo-APB hydrobromide]	182
CCNC(=O)[C@H]1O[C@@H](n2cnc3c(NCc4ccccc4)ncnc32)[C@H](O)[C@@H]1O [Compound 208, N6-Benzyl-5'-N-ethylcarboxamidoadenosine]	108
Cl.c1ccc2nc(C3=NCCN3)ccc2c1 [Compound 209, BU224 hydrochloride]	92
CCN1CCc2nc(N)oc2CC1.Cl.Cl [Compound 210, B-HT 933 dihydrochloride]	79
C[C@H](Cc1ccc(OCC(=O)[O-])cc1)NC[C@H](O)c1cccc(Cl)c1.[Na+] [Compound 212, BRL 37344 sodium]	87
COc1cc2c(CCNC(C)=O)c[nH]c2cc1Cl [Compound 218, 6-Chloromelatonin]	90
